Measurements reported in US20030170229A1, “Vaccine” (SmithKline Beecham Biologicals s.a., priority 1999, published 2003).
Entries after “also recorded” stand apart in the source; their conditions may differ.

Tests used:
P14 peptide = assay: Anti-peptide ELISA on sera of mice immunised with P14 conjugates; format: in vivo, BalbC mice; conditions: mice vaccinated with P14 conjugate
Procedure: (§1) The anti-peptide and anti-carrier immune responses were investigated using an ELISA technique outlined below. Microtiterplates (Nunc) are coated with the specific antigen in PBS (4° overnight) with either: Streptavidin at 2 μg/ml (followed by incubation with biotinylated peptide (1 μM) for 1 hour at 37° C.), Wash 3× PBS-Tween 20 0.1%. Saturate plates with PBS-BSA 1%-Tween 20 0.1% (Sat buffer) for 1 hr at 37°. Add 1° antibody=sera in two-step dilution (in Sat buffer), incubate 1 hr 30 minutes at 37°. Wash 3×. Add 2° anti-mouse Ig (or anti-mouse isotype specific monoclonal antibody) coupled to HRP. Incubate 1 hr at 37°. Wash 5×. Reveal with TMB (BioRad) for 10 minutes at room temperature in the dark. Block reaction with 0.4N H2SO4.
The conjugates comprising the mimotope P14 (25 μg protein/dose), described in example 1, were administered into groups of 10 BalbC mice, adjuvanted with and oil in water emulsion containing QS21 and 3D-MPL described in WO 95/17210. Boosting was be performed on days 14, 24 and 72, sera was harvested 14 days after each immunisation. The immune responses anti-peptide and anti-plate bound IgE was followed using ELISA methods described in Example 1. The antiserum was then tested for anaphylactogenicity and functional activity in the inhibition of histamine release from human allergic basophils (methods as described in example 1).

human IgE = assay: IgE plate bound ELISA: anti-human IgE reactivity in serum of immunised mice; format: in vivo, mouse
allergic human basophils = assay: Human basophil assay, blocking assay (inhibition of allergen-triggered histamine release); format: cell-based; conditions: mouse antiserum; allergic human basophils triggered with allergen
From the text: Samples of cells were lysed by 2× freeze/thawing to assay total histamine contained in the cells.
The degree of inhibition of histamine release can be calculated using the formula: […]
(histamine release from antigen stimulated cells*)
Values corrected for spontaneous release.

Peptide P11 = assay: Anti-P11 ELISA on sera of mice immunised with P11-BSA; format: in vivo; conditions: P11 coupled to BSA, 25 μg in SBAS2 IM, 8 female BALB/c mice, days 0, 14, 28
Procedure: FIG. 5, Antibody response anti-P11. Peptide P11 is coated at 1 μg/ml in carbonate buffer at +4° C. overnight. After saturation of plates, two-fold serial dilution of sera are added and incubated for 1 h at 37° C. Bound IgG is detected with a biotinylated anti-mouse Ab followed by streptavidin-POD and TMB substrate. Time points measured A. days 14 post vaccination 1, and day 14 post v2; B, Day 14 post v3.
as §1
25 μg of conjugate formulated in SBAS2 was injected IM into 8 female BALB/c mice at days 0, 14 and 28. […] Anti-peptide and anti-IgE antibodies raised by vaccination were measured by ELISA, as described in Example 1.

Sequence | induction of anti-P14 immune response (P14 peptide) | induction of anti-IgE immune response (human IgE; mice vaccinated with P14 conjugate) | inhibition of histamine release by antiserum/antibodies raised by vaccination (allergic human basophils) | anti-IgE response (human IgE; as expressed in mAb005 equivalents, all mice, after a third injection of P11 coupled to BSA) [µg/mL] | IgG anti-P11 response (Peptide P11)
APEWPGSRDKRTC (Human peptide sequence) [Peptide P14] | capable of raising high titres | capable of raising high titres | potent in the inhibition of histamine release; also recorded: inhibited histamine release |  | 
CRASGKPVNHSTRKEEKQRNGLL (Human peptide sequence) [Peptide P11] |  |  |  | 28 to 244 | detected already after one injection, but increased further after the second and third injection
